Measurements reported in ChEMBL document CHEMBL6083210, “Exploring apoptotic induction of malabaricone A in triple-negative breast cancer cells: an acylphenol phyto-entity isolated from the fruit rind of Myristica malabarica Lam” (RSC Med Chem, 2024).
Active and inactive are the calls of the source. No cut-off for these calls is given here.

What was measured:
MDA-MB-231 [1] = experiment: Upregulation of Bid protein level in human MDA-MB-231 cells at 8 uM measured after 24 hrs; type: functional, cell-based
MDA-MB-231 [2] = experiment: Induction of cell cycle arrest in human MDA-MB-231 cells assessed as accumulation of cells at G2 phase at 6 uM incubated for 24 hrs by PI staining based flow cytometry analysis (reference value: 7.9%); type: functional
MDA-MB-231 [3] = experiment: Induction of cell cycle arrest in human MDA-MB-231 cells assessed as accumulation of cells at Sub G0 phase at 6 uM incubated for 24 hrs by PI staining based flow cytometry analysis (reference value: 5.3%); type: functional
MDA-MB-231 [4] = experiment: Upregulation of Bad protein level in human MDA-MB-231 cells at 8 uM measured after 24 hrs; type: functional, cell-based
MDA-MB-231 [5] = experiment: Downregulation of XIAP protein level in human MDA-MB-231 cells at 8 uM measured after 24 hrs; type: functional, cell-based
SK-BR-3 = experiment: Antiproliferative activity against human SK-BR-3 cells assessed as reduction in cell viability incubated for 24 hrs by MTT assay; type: functional, cell-based; details: SK-BR-3, 24 h
MDA-MB-231 [6] = experiment: Induction of cell cycle arrest in human MDA-MB-231 cells assessed as accumulation of cells at G2 phase at 8 uM incubated for 24 hrs by PI staining based flow cytometry analysis (reference value: 7.9%); type: functional
MDA-MB-231 [7] = experiment: Induction of apoptosis in human MDA-MB-231 cells assessed as viable cells at 6 uM incubated for 24 hrs by FITC annexin V staining based analysis (reference value: 90.5%); type: functional; details: read-out: Activity
MDA-MB-231 [8] = experiment: Upregulation of p53 protein level in human MDA-MB-231 cells at 8 uM measured after 24 hrs; type: functional, cell-based
MDA-MB-231 [9] = experiment: Induction of DNA fragmentation in human MDA-MB-231 cells assessed as appearance of ladder-like pattern at 6 to 10 uM; type: functional, cell-based; details: dose 6-10 µM
MDA-MB-231 [10] = experiment: Upregulation of TNF-R1 protein level in human MDA-MB-231 cells at 8 uM measured after 24 hrs; type: functional, cell-based
MDA-MB-231 [11] = experiment: Induction of apoptosis in human MDA-MB-231 cells assessed as early apoptotic cells at 10 uM incubated for 24 hrs by FITC annexin V staining based analysis (reference value: 1.4%); type: functional
MDA-MB-231 [12] = experiment: Downregulation of cyclin B1 level in human MDA-MB-231 cells at 6 to 10 uM by Western blot analysis; type: functional, cell-based; details: dose 6-10 µM
MDA-MB-231 [13] = experiment: Induction of apoptosis in human MDA-MB-231 cells assessed as increase in green fluorescence incubated for 24 hrs by acridine orange and ethidium bromide dual staining based analysis; type: functional, cell-based; details: dose 6-10 µM
MDA-MB-231 [14] = experiment: Induction of cell cycle arrest in human MDA-MB-231 cells assessed as accumulation of cells at G1 phase at 8 uM incubated for 24 hrs by PI staining based flow cytometry analysis (reference value: 74.2%); type: functional
MDA-MB-231 [15] = experiment: Induction of apoptosis in human MDA-MB-231 cells assessed as necrotic cells at 6 uM incubated for 24 hrs by FITC annexin V staining based analysis (reference value: 0.8%); type: functional
MDA-MB-231 [16] = experiment: Induction of cell cycle arrest in human MDA-MB-231 cells assessed as accumulation of cells at Sub G0 phase at 8 uM incubated for 24 hrs by PI staining based flow cytometry analysis (reference value: 5.3%); type: functional
MDA-MB-231 [17] = experiment: Induction of cell cycle arrest in human MDA-MB-231 cells assessed as accumulation of cells at G1 phase at 6 uM incubated for 24 hrs by PI staining based flow cytometry analysis (reference value: 74.2%); type: functional
MDA-MB-231 [18] = experiment: Induction of apoptosis in human MDA-MB-231 cells assessed as late apoptotic cells at 8 uM incubated for 24 hrs by FITC annexin V staining based analysis (reference value: 7.3%); type: functional
MDA-MB-231 [19] = experiment: Upregulation of Smac protein level in human MDA-MB-231 cells at 8 uM measured after 24 hrs; type: functional, cell-based
MDA-MB-231 [20] = experiment: Antiproliferative activity against human MDA-MB-231 cells assessed as reduction in cell viability at 1 to 50 uM by MTT assay; type: functional, cell-based; details: dose 1-50 µM, time 12-48 hrs
MDA-MB-231 [21] = experiment: Induction of morphological changes in human MDA-MB-231 cells assessed as decrease in cell number at 15 uM measured upto 18 hrs by acridine orange and ethidium bromide dual staining based inverted microscopic analysis; type: functional
MDA-MB-231 [22] = experiment: Upregulation of Fas protein level in human MDA-MB-231 cells at 8 uM measured after 24 hrs; type: functional, cell-based
MDA-MB-231 [23] = experiment: Induction of apoptosis in human MDA-MB-231 cells assessed as early apoptotic cells at 8 uM incubated for 24 hrs by FITC annexin V staining based analysis (reference value: 1.4%); type: functional
MDA-MB-231 [24] = experiment: Induction of apoptosis in human MDA-MB-231 cells assessed as viable cells at 8 uM incubated for 24 hrs by FITC annexin V staining based analysis (reference value: 90.5%); type: functional; details: read-out: Activity
MDA-MB-231 [25] = experiment: Induction of apoptosis in human MDA-MB-231 cells assessed as dead cells by measuring pink coloration at 6 to 10 uM incubated for 24 hrs by APO staining based analysis; type: functional, cell-based; details: dose 6-10 µM
MDA-MB-231 [26] = experiment: Induction of morphological changes in human MDA-MB-231 cells assessed as membrane breakage at 6 to 10 uM measured 24 hrs by EtBr-AO Live dead Assay; type: functional, cell-based; details: dose 6-10 µM
MDA-MB-231 [27] = experiment: Induction of apoptosis in human MDA-MB-231 cells assessed as necrotic cells at 8 uM incubated for 24 hrs by FITC annexin V staining based analysis (reference value: 0.8%); type: functional

IC50 (SK-BR-3): 8.39 µM
SMILES: O=C(CCCCCCCCc1ccccc1)c1c(O)cccc1O [MALABARICONE A]
Activity (MDA-MB-231 [1]): Active
Activity (MDA-MB-231 [2]): 3.9%
Activity (MDA-MB-231 [3]): 48.7%
Activity (MDA-MB-231 [4]): Active
Activity (MDA-MB-231 [5]): Active
Activity (MDA-MB-231 [6]): 2.9%
viability at 6 µM (MDA-MB-231 [7]): 68.5%
Activity (MDA-MB-231 [8]): Active
Activity (MDA-MB-231 [9]): Active
Activity (MDA-MB-231 [10]): Active
Activity (MDA-MB-231 [11]): 4.25%
Activity (MDA-MB-231 [12]): Active
Activity (MDA-MB-231 [13]): Dose-dependent-effect
Activity (MDA-MB-231 [14]): 27.5%
Activity (MDA-MB-231 [15]): 3.85%
Activity (MDA-MB-231 [16]): 59.7%
Activity (MDA-MB-231 [17]): 36.8%
Activity (MDA-MB-231 [18]): 35.25%
Activity (MDA-MB-231 [19]): Active
Activity (MDA-MB-231 [20]): Time-dependent-effect
Activity (MDA-MB-231 [21]): Active
Activity (MDA-MB-231 [22]): Active
Activity (MDA-MB-231 [23]): 6.45%
viability at 8 µM (MDA-MB-231 [24]): 50.2%
Activity (MDA-MB-231 [25]): Active
Activity (MDA-MB-231 [26]): Active
Activity (MDA-MB-231 [27]): 8.05%
